The values that follow come from PMC8012715, “Mechanism of NanR gene repression and allosteric induction of bacterial sialic acid metabolism” (Nature Communications, 2021).

In the assay the target is T1, NanR (Escherichia coli, UniProt P0A8W0).
T1 construct: crystals by in situ chymotrypsin proteolysis
T1 sequence (P0A8W0 1-263): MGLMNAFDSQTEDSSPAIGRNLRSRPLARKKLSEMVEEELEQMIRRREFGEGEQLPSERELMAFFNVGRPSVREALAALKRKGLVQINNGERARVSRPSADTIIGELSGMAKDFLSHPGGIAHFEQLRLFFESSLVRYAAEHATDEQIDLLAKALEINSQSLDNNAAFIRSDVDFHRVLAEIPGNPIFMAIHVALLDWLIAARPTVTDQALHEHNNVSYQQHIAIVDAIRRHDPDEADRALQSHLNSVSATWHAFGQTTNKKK
Briefly: isothermal titration calorimetry. Conditions: 20 mM Tris-HCl pH 8.0, 150 mM NaCl; 8 °C; no DNA; Zn2+-loaded protein; effector-binding domain; allosteric. For orientation: Isothermal titration calorimetry measures the heat released or taken up as one component is titrated into another.

Structures are written as SMILES.

For `CC(=O)N[C@H]1[C@H]([C@H](O)[C@H](O)CO)OC(O)(C(=O)O)C[C@@H]1O` (stereo partly shown) [Neu5Ac], binding was put at a Kd of 16 µM.

As usually defined, the Kd is the constant that tells how readily two partners part at equilibrium.
